pEC50: −log10 of the molar value. Results filed as inconclusive are left out. Activity calls are given as the source filed them.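 The calls were made as follows: active = EC50 no more than tenfold above the top concentration tested, with valid fit and all samples agreeing; inconclusive = flat fit at 30 to 70% inhibition, poor fit, or split samples; inactive = EC50 beyond tenfold the top concentration tested.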 Where only a bound is given, the exact number is not on record here.

What is called pEC50 is the EC50 on a negative log10 scale, so that one unit is a factor of ten. For orientation: EC50 means the concentration giving half of the maximal effect.

The test relates to BJeLR fibroblast viability, Alamar Blue fluorescence, 48 h. The test is described as follows: BJeLR fibroblast growth inhibition, viability readout – cell-based, alamar blue fluorescence, 48 h, cherrypicked samples, dose response (AID 2610).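 Also: BJ fibroblasts with hTERT plus SV40 large and small T and HRAS V12; EC50 for loss of viable cells so potency reflects cytotoxic compounds.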 A general note: The colour change of resazurin is a common sign of viable cells or microbes.
For the compound `Cc1ccc(/C=N/NC(=O)c2cc(-c3ccncc3)nc3ccccc23)o1`, the pEC50 is 6.16.

For the compound `CCCC(=O)Nc1ccc(C(=O)N/N=C/c2ccc([N+](=O)[O-])o2)cc1`, the pEC50 was > 7.31.

Regarding `Nc1ncnc2c1ccn2[C@@H]1O[C@H](CO)[C@@H](O)[C@H]1O`, the pEC50 is > 6.98.

As for `Nc1nc(CCl)nc(Nc2ccc3ccccc3c2)n1`, the pEC50 was 6.72.

As to `O=C(COc1ccc(Cl)cc1)Nc1ccc(C(=O)NCc2cccnc2)cc1`, the pEC50 is 5.35.

`O=C(c1ccc2c3n(nc2c1)-c1ccccc1CO3)N1CCCCC1`: the EC50 was > 13.3 µM (inactive).

`O=C(NCc1cccnc1)c1ccc(-c2cc3ccccc3oc2=O)cc1`: the pEC50 is 5.87.

As for `CC(=O)c1ccccc1OCCOCCOCCOc1ccccc1C(C)=O`, the EC50 was > 13.3 µM (inactive).

On to `COc1cc(/C=C/c2ccc3cccc(O)c3n2)cc(OC)c1OC`, for which the pEC50 was 5.47.

Consider `CCOc1cc(/C=C2\COc3ccccc3C2=O)cc(Br)c1OCC(=O)N(C)C`, for which the pEC50 was 5.51.

With `CCN(CC)C(=O)c1ccc(NC(=O)Nc2ccccc2F)cc1`, the EC50 was > 13.3 µM (inactive).

Turning to `CCOC(=O)C1CCN(S(=O)(=O)c2c(Cl)ccc3nonc23)CC1`, the pEC50 is 6.39.

For `CCCCCN=Cc1c(C)[nH]n(-c2nc3ccccc3s2)c1=O`, the EC50 was > 13.3 µM (inactive).

Regarding `Cc1ccc2[nH]c3c(c2c1)CCCC3NC(=O)CCl` (stereo not given), the pEC50 was 5.64.

As to `COc1ccc(-c2nnc(NC(=O)c3ccc(S(=O)(=O)N4CCc5ccccc5C4)cc3)o2)cc1`, the negative logarithm of the EC50 (pEC50) was 5.59.

As for `Cc1occc1C(=O)N/N=C/c1ccc(-c2ccccc2)cc1`, the EC50 is > 13.3 µM (inactive).

`O=C(N/N=C(\c1ccccc1)c1cccnc1)c1cccc(F)c1`: the pEC50 is 6.16.

For `O=C(Oc1ccc(-c2nc(-c3ccccn3)no2)cc1)c1ccccc1`, the EC50 is > 13.3 µM (inactive).

With `O=[N+]([O-])c1ccccc1N/N=C\c1ccccc1Cl`, the EC50 was > 13.3 µM (inactive).

Regarding `COc1ccc(C(=O)Nc2nc3ccccc3s2)c(OC)c1`, the EC50 was > 13.3 µM (inactive).

Consider `CC(=O)c1ccc(NC(=O)N2CCc3ccccc3C2)cc1`, for which the EC50 is > 13.3 µM (inactive).

On to `C(=N\Nc1nncc2ccccc12)/c1ccccn1`, for which the pEC50 was 5.48.

Take `CCc1c(C)c(C#N)c2nc3ccccc3n2c1Cl`: the pEC50 is 6.26.

As for `CNC1=C(N(C(C)=O)c2ccc(Br)cc2)C(=O)c2ccccc2C1=O`, the pEC50 was 5.87.

For the compound `CC(C)[C@]12O[C@H]1[C@@H]1O[C@]13[C@]1(O[C@H]1C[C@H]1C4=C(CC[C@@]13C)C(=O)OC4)[C@@H]2O`, the pEC50 was > 6.98.

For the compound `CCCc1sc(N/N=C/c2ccccn2)nc1-c1ccc(F)cc1`, the pEC50 is 5.87.

In the case of `CCCCCOc1ccc(Br)cc1/C(C)=N/NC1=NCCN1`, the pEC50 was 6.16.

Take `CCn1c(C)nc2cc(-c3nc4n(n3)Cc3ccccc3-4)ccc21`: the EC50 is > 13.3 µM (inactive).

Turning to `CC1CCCN(c2ccc([N+](=O)[O-])cc2C(=O)c2ccccc2)C1` (stereo not given), the pEC50 was > 6.98.

As for `N#Cc1c(NC(=O)/C=C/c2ccco2)sc2c1CCCC2`, the pEC50 is > 6.98.

As for `CCc1nc(N)nc(N)c1-c1ccc(Cl)cc1`, the EC50 is > 13.3 µM (inactive).

Take `Oc1ccc(/C=N/Nc2nccnc2Cl)c(O)c1`: the pEC50 was 5.17.

In the case of `COc1cccc(C(=O)Nc2ccc(N3CCCC3)cc2)c1`, the pEC50 is 5.71.

`COc1ccc(/C=N\NC(=O)c2cccc(F)c2)cc1COc1ccccc1`: the pEC50 is > 6.98.

In the case of `Cc1ccccc1OCC(O)CNC1CCC(NCC(O)COc2ccccc2C)CC1` (stereo not given), the pEC50 was 6.24.

As for `c1ccc(-c2noc(-c3ccc4c(c3)OCO4)n2)nc1`, the EC50 was > 13.3 µM (inactive).

`COc1cc(OC)c(C2=NOC(C(=O)NCc3cccs3)C2)cc1Cl` (stereo not given): the pEC50 was 5.63.

As for `C/C(=N\Nc1nc2ccccc2[nH]1)c1ccccn1`, the pEC50 is 6.78.

As for `COc1ccc(-c2cc3nc(C)n(N)c(=O)c3s2)cc1`, the EC50 was > 13.3 µM (inactive).

Consider `CNC(=S)N/N=C/c1ccc(-c2ccc(C(=O)O)cc2)o1`, for which the EC50 is > 13.3 µM (inactive).

As to `O=C(NCc1cccnc1)c1ccc(NC(=O)c2ccc([N+](=O)[O-])cc2)cc1`, the pEC50 is 5.85.

Regarding `O=C(NCCCn1ccnc1)c1ccc(N2CCCCCC2)c([N+](=O)[O-])c1`, the pEC50 was 5.18.

In the case of `O=C(/C=C/c1ccco1)Nc1ccc(Oc2ccccc2)cc1`, the EC50 was > 13.3 µM (inactive).

As to `CC(C)Oc1ccccc1C1CC(=O)Nc2cc3c(cc21)OCCO3` (stereo not given), the pEC50 is 6.51.

With `Cc1ccc(C(=O)Sc2cccccc2=O)cc1`, the pEC50 is > 7.20.

Regarding `CCOc1ccc2c(c1)C(C)=CC(C)(C)N2S(=O)(=O)c1ccc(NC(C)=O)cc1`, the negative-log EC50 (pEC50) is > 6.98.

For `CCCN1C=CC(=C2C(=O)c3ccccc3C2=O)C=C1`, the EC50 is > 13.3 µM (inactive).

As to `O=C(Cc1ccc(Cl)cc1)c1c[nH]c(C(=O)NCc2cccnc2)c1`, the EC50 was > 13.3 µM (inactive).

In the case of `COC(=O)C1CN(C#N)N(c2ccc(Cl)cc2)C12c1ccccc1-c1ccccc12` (stereo not given), the pEC50 was 6.25.

In the case of `CCOc1ccc(Nc2nc(N)nc(CCl)n2)cc1`, the pEC50 was 6.41.

For the origin of these results see PubChem BioAssay AID2610 (Broad Institute, 2010).
